According to patent US20260016473A1 (priority 2022, published 2026):

Columns and labels:
SARS-CoV2 Spike RBD = target: T1, SARS-CoV2 Spike RBD (Severe acute respiratory syndrome coronavirus 2, UniProt P0DTC2); type: biochemical, SARS-CoV-2
T1 construct: purchased Sino Biological, Inc. 40592-V08H

SARS-CoV Spike S1 = SARS-CoV Spike S1 (Severe acute respiratory syndrome coronavirus, UniProt P59594); type: biochemical
SARS-CoV2 Spike S1 = target: T2, SARS-CoV2 Spike S1 (Severe acute respiratory syndrome coronavirus 2, UniProt P0DTC2); type: biochemical, SARS-CoV-2
T2 construct: SARS-CoV2 Spike S1 (Product number: 40591-V08); purchased Sino Biological, Inc. 40591-V08

SARS-CoV2 Spike S2 = target: T3, SARS-CoV2 Spike S2 (Severe acute respiratory syndrome coronavirus 2, UniProt P0DTC2); type: biochemical, SARS-CoV-2
T3 construct: SARS-CoV2 Spike S2 (Product number: 40590-V08H1); purchased Sino Biological, Inc. 40590-V08H1

[1] = tested on: α-amylase, Lactoferrin, Lysozyme, Mucin, EGF, IgA; type: biochemical
human serum-derived IgA = type: biochemical
MERS-CoV Spike S1 = MERS-CoV Spike S1 (Middle East respiratory syndrome-related coronavirus, UniProt K9N5Q8); type: biochemical
Sequence of MERS-CoV Spike S1 (K9N5Q8 18-751 limits assumed): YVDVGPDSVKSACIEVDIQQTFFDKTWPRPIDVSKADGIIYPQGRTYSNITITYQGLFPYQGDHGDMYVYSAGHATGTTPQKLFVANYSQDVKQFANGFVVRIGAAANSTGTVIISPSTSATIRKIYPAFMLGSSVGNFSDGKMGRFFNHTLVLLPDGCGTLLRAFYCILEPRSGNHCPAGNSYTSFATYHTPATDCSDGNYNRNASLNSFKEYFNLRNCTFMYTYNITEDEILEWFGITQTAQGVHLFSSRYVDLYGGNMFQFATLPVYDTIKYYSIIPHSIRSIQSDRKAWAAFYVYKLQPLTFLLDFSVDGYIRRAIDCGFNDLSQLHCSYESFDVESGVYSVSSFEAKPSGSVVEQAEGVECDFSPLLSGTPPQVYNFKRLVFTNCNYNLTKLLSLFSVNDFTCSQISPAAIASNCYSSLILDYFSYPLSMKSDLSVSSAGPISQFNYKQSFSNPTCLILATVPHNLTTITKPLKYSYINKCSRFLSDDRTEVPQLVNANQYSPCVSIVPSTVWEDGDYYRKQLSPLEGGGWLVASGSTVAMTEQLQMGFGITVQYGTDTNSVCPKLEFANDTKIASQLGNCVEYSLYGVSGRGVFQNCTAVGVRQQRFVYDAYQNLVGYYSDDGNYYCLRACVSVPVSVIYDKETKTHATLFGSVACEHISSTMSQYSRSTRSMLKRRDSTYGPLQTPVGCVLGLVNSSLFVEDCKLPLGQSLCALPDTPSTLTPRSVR

What does the source list for CCC(C)c1nc2c(CCCNC(=N)N)[nH]c(-c3c[nH]c4ccccc34)cn-2c1=O (centres unmarked) [Cypridina Luciferin]?
luminescent reaction at the RBD domain (SARS-CoV2 Spike RBD): did not cause a reaction at the PBD domain at all; reaction with spike protein of SARS-CoV (SARS-CoV Spike S1): reacted; luminescent reaction at S1 (SARS-CoV2 Spike S1): caused a luminescent reaction; reaction with spike protein of SARS-CoV-2 (SARS-CoV2 Spike S1): reacted; luminescent reaction at S2 (SARS-CoV2 Spike S2): caused a luminescent reaction; luminescent reaction with various proteins [1]: did not cause a luminescent reaction; luminescent reaction with immunoglobulin protein IgA (human serum-derived IgA): did not cause a luminescent reaction; reaction with the protein of MERS-CoV (MERS-CoV Spike S1): did not react
